Measured values: patent US5744161A, “Use of piperine as a bioavailability enhancer” (priority 1995, dated 1998)
Values joined by “and” are separate entries in the source; they are usually repeats but may differ in a detail not shown here. Identical values can stand only once. “Also recorded” adds a separate entry of the source. Like-named read-outs stand apart in the source and are kept apart here.

How the values were obtained:
[1] = Blood levels of vitamin A (retinol) before and after 14 days supplementation; format: in vivo, human; conditions: 5 mg piperine with beta-carotene, in words
Protocol: Piperine known under the trademark Bioperine® consisting of 98% piperine has been evaluated in a nutrient bioavailability experiment.
A dose of 5 mg of piperine, and up to 15 mg, would most likely not interfere with the metabolism of a majority of drugs as previously discussed. […] Retinol, or vitamin A, is a product of metabolic conversion of beta-carotene, and its blood levels would likely be affected by enzymatic inhibition/stimulation with piperine.
Values of Vitamin A (retinol) before treatment and after
14 days supplementation with Bioperine ®

[2] = Margin of bioenhancing dose of piperine versus LD50 in rodents; set-up: species or system mice and rats; conditions: in vivo; maximum approx. 15 mg/person/day, no more than 20 mg/day; read-out: bioenhancing dose less than LD50 dose
Protocol: Black pepper contains approximately 5-9% piperine and is listed by the FDA as an herb which is generally recognized as safe (GRAS) for its intended use as spice, seasoning, or flavoring.
The dose of piperine considered as bioenhancing absorption of nutrients is considered 0.0004-0.15 mg of piperine/kg body weight.

[3] = system: Rat; conditions: cited from earlier work
[4] = co-administered drugs; cited from earlier work
[5] = system: rats; conditions: cited from earlier work
[6] = system: laboratory animals; conditions: broad range of doses; cited from earlier work
[7] = system: Mice; conditions: cited from earlier work
[8] = system: V-79 lung fibroblasts; conditions: in vitro; cited from earlier work
[9] = system: benzo(a)pyrene activation; conditions: cited from earlier work
[10] = system: rats; conditions: 100 mg and 800 mg/kg intragastric; 10 mg/kg and 100 mg/kg intra-peritoneal; cited from earlier work
[11] = system: mice treated with potent hepatotoxins and carbon tetrachloride; conditions: in vivo and in vitro experiments; cited from earlier work
[12] = system: mice treated with potent hepatotoxins tetra-hydroperoxide and carbon tetrachloride; conditions: cited from earlier work
[13] = system: rats injected with carageenin; conditions: cited from earlier work
[14] = system: cytochrome P-450; conditions: cited from earlier work
[15] = system: preweaned mice; conditions: cited from earlier work; for effect on carcinogenic activity of safarole, tannic acid or methylcholantrene: fed to injected mice; for carcinogenic potency compared with methylcholantrene / tumor development: injected, preweaned mice
[16] = with piperine, cited from earlier work
[17] = 20 mg piperine daily for seven days, then 300 mg phenytoin; cited from earlier work
[18] = cited from earlier work
[19] = 5 to 20 times the average daily human intake
[20] = dose that significantly inhibited pregnancy
[21] = in vivo and in vitro experiments

Compound: O=C(/C=C/C=C/c1ccc2c(c1)OCO2)N1CCCCC1 [piperine]
- blood levels of retinol / conversion of beta-carotene to vitamin A [1]: remained unchanged throughout the experiment; also recorded: does not elevate the conversion of beta-carotene to vitamin A
- selectivity ratio [2]: ≤ 40000
- LD50 ([3]; Rat weanling): 585.0 mg/kg body weight
- LD50 ([3]; Rat): 514.0 mg/kg body weight and 800.0 mg/kg body weight
- bioavailability of a number of drugs [4]: increase the bioavailability, blood levels and efficacy of a number of drugs
- clinical symptoms [5, 19]: no clinical symptoms
- food intake, growth pattern, organ weights [5, 19]: did not affect
- blood chemistry (RBC, WBC, differential count, hemoglobin, serum proteins, albumins, globulins, glucose, cholesterol, aminotransferases, phosphatases) ([5]; treated vs untreated animals): no alterations
- general growth pattern, body to organ weight ratio, clinical symptomatology and blood chemistry [6]: does not cause any abnormality
- anti-fertility activity ([7]; 5 mg/kg body weight/day): no anti-fertility activity
- inhibition of pregnancy ([7]; 12.5 mg/kg body weight, twice a day, intraperitoneal or oral): inhibited significantly pregnancy in mice
- effectiveness at pre- and post-implantation periods ([7]; 12.5 mg/kg body weight, twice a day): effective at both pre- and post-implantation periods
- clinically noticeable toxicity [7, 20]: did not produce clinically noticeable toxicity
- effect on estrogen cycle [7, 20]: did not interfere with the estrogen cycle
- uterotropic effect [7, 20]: did not show uterotropic effect
- effect on benzo(a)pyrene cytotoxicity [8]: significantly enhanced benzo(a)pyrene cytotoxicity
- effect on benzo(a)pyrene cytotoxicity ([9]; by lowering benzo(a)pyrene-oxide production): decreasing benzo(a)pyrene cytotoxicity
- effect on benzo(a)pyrene activation (benzo(a)pyrene-oxide production) [9]: inhibit benzo(a)pyrene activation
- serum sorbitol dehydrogenase (SDH), ALT, AST and isocitrate dehydrogenase (ICD) [10]: None of the treatment regiments altered significantly
- enzymatic leakage of glutamate pyruvate transaminase and alkaline phosphatase [11]: reduced enzymatic leakage
- hepatoprotective action [12, 21]: hepatoprotective action
- lipid peroxidation [12, 21]: decrease in lipid peroxidation
- reduced glutathione and total thiols in the liver ([12]; mouse, in vivo): prevented depletion of reduced glutathione and total thiols
- acid phosphatase levels [13]: leveling off increased levels of acid phosphatase
- lipid peroxide formation [13]: inhibiting lipid peroxide formation
- decrease of cytochrome P-450 content of hepatic microsomes ([14]; treatment of rats): approximately 20%
- effect on carcinogenic activity of safarole, tannic acid or methylcholantrene [15]: did not modify their carcinogenic activity

Compound: CC(C)NCC(O)COc1cccc2ccccc12 (stereo not shown) [propranolol]
- elimination rate of propranolol ([16]; 3 mg dose): did not affect the elimination rate; also recorded: without slowing down the drug elimination rate
- maximum blood concentration increase of propranolol ([16]; 3 mg dose): two fold; also recorded: doubling its blood levels
- plasma / blood levels of propranolol [16]: significant increase in plasma levels; also recorded: significant increase in blood levels

Compound: C=CCc1ccc2c(c1)OCO2 [safarole]
- increase of cytochrome P-450 content of hepatic microsomes ([14]; pretreatment of rats): about 50%
- carcinogenic potency compared with methylcholantrene [15]: weak carcinogens
- tumor development [15]: developed tumors

Compound: O=C1NC(=O)C(c2ccccc2)(c2ccccc2)N1 [phenytoin]
- blood concentration of phenytoin [17]: increased blood levels; also recorded: rose more rapidly
- elimination of phenytoin [17]: dramatically prolonged the elimination time; also recorded: significantly slower elimination
- maximum concentration of phenytoin [17]: significantly higher concentrations
- time to maximum concentration of phenytoin [17]: shorter time

Compound: O=C(OC[C@H]1O[C@@H](OC(=O)c2cc(O)c(O)c(OC(=O)c3cc(O)c(O)c(O)c3)c2)[C@H](OC(=O)c2cc(O)c(O)c(OC(=O)c3cc(O)c(O)c(O)c3)c2)[C@@H](OC(=O)c2cc(O)c(O)c(OC(=O)c3cc(O)c(O)c(O)c3)c2)[C@@H]1OC(=O)c1cc(O)c(O)c(OC(=O)c2cc(O)c(O)c(O)c2)c1)c1cc(O)c(O)c(OC(=O)c2cc(O)c(O)c(O)c2)c1 [tannic acid]
- carcinogenic potency compared with methylcholantrene [15]: weak carcinogens
- tumor development [15]: developed tumors

Compound: Cc1ccc2cc3c(ccc4ccccc43)c3c2c1CC3 [methylcholantrene]
- tumor development [15]: developed tumors

Compound: Cn1c(=O)c2[nH]cnc2n(C)c1=O [theophylline]
- maximum concentration of theophylline, increase ([18]; 20 mg piperine daily for seven days, then 150 mg theophylline): 1.5 times higher
- blood levels of theophylline ([18]; 20 mg piperine for seven days prior): increased blood levels

Compound: C=C(C)[C@H]1CC=C(C)CC1 [d-limonene]
- effect on carcinogenic activity of safarole, tannic acid or methylcholantrene [15]: reduced their carcinogenic activity
